From patent publication US6197982A, “Vitamin D analogues” (priority 1996, dated 2001)

Assays:
immune functions = settings: in vivo; cited from earlier work
[1] = system: regulatory/suppressor T-lymphocytes; settings: cited from earlier work
B-lymphocytes = settings: in vitro; cited from earlier work
cells = settings: cited from earlier work
[2] = calcemic activity in rats in vivo; parameters: species or system rat; key to Calc. rel. (calcemic activity relative to 1,25(OH)2 D3): calcemic activity relative to 1,25(OH)2D3 (=1); settings: rats in vivo; relative to 1,25(OH)2 D3; low values preferred
Procedure: The calcemic activity of the compounds was determined in rats in vivo, as previously described. In table 1, column "Calc., rel.", the calcemic activities of selected compounds (relative to 1,25(OH)2 D3) are listed; as mentioned, low values for the compounds of the present invention are ordinarily preferred.
(§1) .sunburst. The values are relative to 1,25 (OH)2 D3; a value

activated T-lymphocytes = settings: cited from earlier work
angiogenesis = settings: cited from earlier work
monocytes/macrophages = settings: cited from earlier work
mouse spleen lymphocytes = experiment: mixed lymphocyte reaction (MLR), 3H-thymidine incorporation; format: cell-based, mouse (BALB/c and CB6F1); settings: relative to 1,25(OH)2 D3; 72 hours; >1 = more active
Procedure: The mixed cultures of lymphocytes are incubated with the test compounds for 72 hours. Cellular DNA-synthesis is assessed by the incorporation of ^3 H-thymidine in the D
as §1
(§2) H-thymidine incorporation compared to controls.

[3] = system: type I diabetes, non-obese diabetic (NOD) mouse; settings: cited from earlier work
calcium metabolism = settings: high doses necessary for therapeutic effect on e.g. psoriasis, cancer, immunological disorders; cited from earlier work
Cytotoxic T-cells = settings: cited from earlier work
[4] = system: HaCaT, human skin keratinocyte cell line; experiment: HaCaT antiproliferative assay, 3H-thymidine uptake; format: cell-based
Excerpt: as §1, §2
.cndot. "HaCaT, max %" indicates the maximal inhibition of the cell
proliferation (maximal efficacy) which is obtainable at the higher
concentration of 10^-7 M of a compound.

HL-60 cancer cells = settings: relative to 1,25(OH)2 D3; cited from earlier work
receptor = settings: relative to 1,25(OH)2 D3; cited from earlier work

| SMILES | immune functions in vitamin D deficiency states (immune functions) | regulatory/suppressor T-lymphocytes [1] | formation of antibodies (IgM and IgG) from B-lymphocytes (B-lymphocytes) | differentiation of cells (cells) | excessive cell proliferation (cells) | Calc. rel. (calcemic activity relative to 1,25(OH)2 D3) [2] | cytokines IL-2 and INF-γ (activated T-lymphocytes) | proliferation of activated T-lymphocytes (activated T-lymphocytes) | angiogenesis (angiogenesis) | production/release of cytokines such as IL-1 and TNF (monocytes/macrophages; antigen-stimulated monocytes/macrophages) | antibacterial activity of monocytes/macrophages (monocytes/macrophages) | differentiation of monocytes towards macrophages (monocytes/macrophages) | MLR rel. (ratio between the IC50 value of 1,25(OH)2 D3 and the IC50 value of the compound) (mouse spleen lymphocytes) | immunoregulation in type I diabetes [3] | hypercalcemia (calcium metabolism) | cytotoxic T-cells (Cytotoxic T-cells) | inhibition at 0.1 µM ([4]; Homo sapiens, HaCaT, at 10^-7 M, read-out: HaCaT, max. % (maximal inhibition of the cell proliferation)) [%] | HaCaT rel. (ratio between the IC50 value of 1,25(OH)2 D3 and the IC50 value of the compound) ([4]; relative to 1,25(OH)2 D3, 3H-thymidine incorporation, >1 = more active) | potency in inducing differentiation of HL-60 cancer cells, times that of 1,25(OH)2 D3 (HL-60 cancer cells) [times] | receptor binding affinity, times that of 1,25(OH)2 D3 (receptor) [times] |
| --- | --- | --- | --- | --- | --- | --- | --- | --- | --- | --- | --- | --- | --- | --- | --- | --- | --- | --- | --- | --- |
| C=C1/C(=C\C=C2/CCC[C@]3(C)[C@@H]([C@H](C)CCCC(C)(C)O)CC[C@@H]23)C[C@@H](O)C[C@@H]1O [1,25(OH)2 D3, 1α,25-dihydroxy-vitamin D3] | restores normal immune functions in vitamin D deficiency states in vivo | stimulated | indirect inhibition of the formation of antibodies (IgM and IgG) | stimulate the differentiation of cells | inhibit excessive cell proliferation | 1 | down-regulation of cytokines IL-2 and INF-γ | inhibited | inhibition of angiogenesis | downregulation | enhances their antibacterial activity | stimulates the differentiation of monocytes towards macrophages | 1 | effective immunomodulator | serious side effects due to hypercalcemia | inhibited | 85 | 1 |  |  |
| C=C1/C(=C\C=C2/CCC[C@]3(C)[C@@H]([C@H](C)[C@H](CCC(C)(C)O)OC)CC[C@@H]23)C[C@@H](O)C[C@@H]1O [22S-methoxy-1,25(OH)2 D3] |  |  |  |  |  |  |  |  |  |  |  |  |  |  |  |  |  |  | 0.25 | 0.03 |
